Data published in article PMC12715762, “Discovery of VU6052254: A Novel, Potent M1 Positive Allosteric Modulator” (ACS Chemical Neuroscience, 2025).
Values after ≈ are worked out from the molar mass of the structure shown.

Key:
human M1 = molecular target: T1, human M1 (Homo sapiens, UniProt P11229); assay: M1 agonist calcium mobilization assay (human); format: cell-based; conditions: for hM1 Agonist AChmax (%): human M1, % ACh max, n = 9
T1 sequence (P11229 1-460): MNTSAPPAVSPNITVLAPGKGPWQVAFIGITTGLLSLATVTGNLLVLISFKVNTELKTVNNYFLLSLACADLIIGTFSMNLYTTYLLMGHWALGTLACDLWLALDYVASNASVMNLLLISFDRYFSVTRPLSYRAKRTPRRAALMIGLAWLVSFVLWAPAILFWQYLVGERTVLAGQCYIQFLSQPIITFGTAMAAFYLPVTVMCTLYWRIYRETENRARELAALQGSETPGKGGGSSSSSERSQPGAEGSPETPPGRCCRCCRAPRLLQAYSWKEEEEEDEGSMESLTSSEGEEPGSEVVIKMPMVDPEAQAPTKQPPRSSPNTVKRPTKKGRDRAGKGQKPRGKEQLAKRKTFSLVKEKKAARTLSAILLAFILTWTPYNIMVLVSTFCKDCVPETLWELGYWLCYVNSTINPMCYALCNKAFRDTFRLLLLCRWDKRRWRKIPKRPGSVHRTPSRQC
Procedure: Procedures for Biological Experiments
Calcium mobilization assays:
All functional cell-based assays were performed in stable Chinese Hamster Ovary (CHO) cell lines constitutively expressing human M5 or human M1 receptors. For full muscarinic selectivity, CHO cells expressing human M3, human M2 plus Gqi5 or human M4 plus Gqi5 were used. Cells were plated at 15,000 cells per 20 µL per well in black 384-well, TC-treated, clear-bottomed plates (Greiner) in Ham’s F12 medium supplemented with 10% FBS and 20 mM HEPES. Cells were incubated overnight at 37 °C under 5% CO2. The following day, the medium was removed and replaced with 1.2 µM Fluo-4 AM (Invitrogen) in assay buffer (Hank’s Balanced Salt Solution supplemented with 20 mM HEPES and 2.5 mM Probenecid, pH 7.4) and the cells were incubated for 50 minutes at 37 °C under 5% CO2. Dye was then removed and replaced with 20 µL of fresh assay buffer. Test compounds at a 10 mM concentration in DMSO were serially diluted in DMSO (either 1:3 or 1:5 dilution) to create a 10-point concentration series. The DMSO solutions were then diluted in assay buffer resulting in compound solutions at 2-times the final assay concentration with the highest assay concentration of 30 µM. The compound plate, cell plate, and plates containing EC20 and EC80 acetylcholine concentrations were placed in a Hamamatsu FDSS 6000 or 7000 kinetic imaging plate reader equipped to measure Ex480/Em540 fluorescence. Data were collected at 1 frame per second. After 2 seconds of collecting baseline fluorescence, 20 µL of the compound solutions were added to the cell plate. This was followed by the addition of an EC20 concentration of acetylcholine at 142 seconds. […] The fluorescence signal was collected for a total of 300 seconds. […] Data were imported and analyzed in Dotmatics Informatics software. by normalizing all data in the individual kinetic traces to the initial fluorescence read. The magnitude of each agonist addition was then determined and normalized to the average maximum response. […] The IC50 determined using the EC80 of acetylcholine is the value reported. […]

[1] = predicted hepatic clearance, hepatic microsomes (human); format: in vitro ADME; conditions: human (h)
Procedure: (§1) After a 5 min preincubation, the reaction was initiated by the addition of NADPH (1 mM). At selected time intervals (0, 3, 7, 15, 25, and 45 min), aliquots were taken and subsequently placed into a 96-well plate containing cold acetonitrile with internal standard (50 ng/mL carbamazepine). Plates were then centrifuged at 3000 rcf (4 °C) for 10 min, and the supernatant was transferred to a separate 96-well plate and diluted 1:1 with water for LC/MS/MS analysis. The in vitro half-life ( 1/2, min, Eq. 1), intrinsic clearance (CLint, mL/min/kg, Eq. 2), and subsequent predicted hepatic clearance (CLhep, mL/min/kg, Eq. 3) was determined employing the […]
(§2) where k represents the slope from linear regression analysis of the natural log percent remaining of a test compound as a function of incubation time […]
(§3) (2) CLint = in vitroT x mg microsomes x gram liver x kg body wt ascale-up factors: of 20 (human) or 45 (rat) […]
(§4) where Qh (hepatic blood flow, mL/min/kg) is 21 (human) or 70 (rat).
(§5) LC/MS/MS Bioanalysis of Samples from Plasma Protein Binding and Intrinsic Clearance […]
(§6) Samples were analyzed on a Thermo Electron TSQ Quantum Ultra triple quad mass spectrometer (San Jose, CA) via electrospray ionization (ESI) with two Themo Electron Accella pumps (San Jose, CA), and a Leap Technologies CTC PAL autosampler (Carrboro, NC). […]

[2] = predicted hepatic clearance (cyno); format: in vitro ADME; conditions: cyno (c)
Procedure: as §1, §2, §3, §4, §5, §6

CYP 1A2 = CYP 1A2 (Homo sapiens, UniProt P05177); assay: CYP450 inhibition; format: in vitro ADME
Sequence of CYP 1A2 (P05177 whole entry): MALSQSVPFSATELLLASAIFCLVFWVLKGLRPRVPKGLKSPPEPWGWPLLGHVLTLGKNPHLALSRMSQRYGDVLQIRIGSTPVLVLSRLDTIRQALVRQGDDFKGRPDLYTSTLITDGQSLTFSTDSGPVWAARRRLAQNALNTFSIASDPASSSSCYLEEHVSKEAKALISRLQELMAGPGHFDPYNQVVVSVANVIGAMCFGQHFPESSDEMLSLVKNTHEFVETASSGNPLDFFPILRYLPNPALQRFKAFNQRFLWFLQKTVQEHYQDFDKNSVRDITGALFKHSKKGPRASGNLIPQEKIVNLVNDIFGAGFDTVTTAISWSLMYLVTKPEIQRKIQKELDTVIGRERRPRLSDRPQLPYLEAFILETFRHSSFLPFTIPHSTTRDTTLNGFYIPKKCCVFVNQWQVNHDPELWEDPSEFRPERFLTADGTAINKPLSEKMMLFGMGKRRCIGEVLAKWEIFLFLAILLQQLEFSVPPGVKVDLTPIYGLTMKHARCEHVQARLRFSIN

[3] = solubility in simulated intestinal fluid (FaSSIF); format: physicochemical

Structure (SMILES) | hM1 Agonist AChmax (%) (human M1) | Predicted CLhep [1] [mL/min/kg] | Predicted CLhep [2] [mL/min/kg] | IC50 (CYP 1A2) [µM] | solubility [3] [µg/mL] | EC50 (human M1; human M1, n = 9, read-out: hM1 Agonist EC50) [µM]
Cn1cc2c(-c3cc(F)c(CN4Cc5ncccc5C4=O)c(F)c3)cccc2n1 [compound 1, reference compound] | 20 | 1.3 | 5.6 | 14 | 7 (≈ 17.9 µM) | –
Cn1cc2c(-c3cc(F)c(CN4Cc5ncccc5C4=O)c(F)c3)ccc(C(C)(C)O)c2n1 [compound 7] | 22 | 12.8 | 17.7 | > 30 | 11 (≈ 24.5 µM) | 3.64
